Experimental data from patent publication US20210087533A1, “CANINE EPITHELIAL ORGANOIDS AND METHODS OF MAKING, RECOVERING, AND USE” (Iowa State University Research Foundation, Inc., priority 2019, published 2021).

Tests used:
TCC organoids [1] = assay: MTT cell viability (cytotoxicity) assay, TCC organoids; assay type: cell-based, canine; settings: for effect on TCC cell viability (MTT assay): old, much passaged TCC organoids
Experimental: Transitional Cell Carcinoma (TCC) Organoid Isolation and Culture. Canine bladder cancer cells for TCC organoids were isolated from urine (TCC #1) or biopsies (TCC #2) of dogs with transitional cell carcinoma. Briefly, urine was centrifuged and washed or small biopsies were washed with 1×Complete Chelation Solution (CCS) and vortexing up to 6 times, then incubated in 20-30 mM EDTA for 1 hour at 4° C. on a rocker. FBS and CCS was added to stop EDTA chelation, mixed, and the supernatant containing cancer cells was put in a new tube. Samples were centrifuged at 150 g for 5 minutes at 4° C., resuspended in DMEM/F12, centrifuged again, and the pellet was resuspended in 120 ul […]®. […]® droplets were then plated at 30 ul/well […]®/cells on 24-well plates. Complete Media with Growth Factors (CMGF+) containing Rock inhibitor and GSK inhibitor was added for 2-3 days at 37 C, and after 2-3 days, TCC organoids were cultured in CMGF+ media without inhibitors. TCC organoids were passaged every 4-7 days with TrypLE Express to dissociate organoids to single cells.
MTT Cell Viability Assay (Cytotoxicity Assay). Organoids from healthy intestine or transitional cell carcinoma (TCC) were dissociated and plated at equal density in 30 ul/well […]® in 24-well plates in 500 ul/well CMGF+ growth medium. On Day 1-4 after passage, organoids were incubated with the indicated drug for 48 or 96 hours. Cytotoxicity was determined using 3-(4,5-dimethylthiazol-2-yl) 2,5-diphenyl tetrazolium bromide (MTT) at a final concentration of 0.5 mg/mL for 1.5 hr. After medium removal, 200 ul/well cold DMSO was used to dissolve the formazan dye crystals and absorbance was read at 570 nm using a plate reader (SpectraMax 190, Molecular Devices).
As DMSO freezes […] but it is preferable to use cold media (4° C.) to dissolve the […]®. Thus, put DMSO briefly in 4° C. fridge or −20° C. freezer and remove before it all freezes, then use cold DMSO, pipette up and down vigorously, shake the plate, put plate in freezer briefly, etc. to try to get the […]® and formazan dye crystals to dissolve.

TCC organoids [2] = assay: Ki-67 IHC staining (proliferation) of TCC organoids; assay type: cell-based, canine
TCC organoids [3] = assay: Morphology of treated TCC organoids; assay type: cell-based, canine; settings: fenoldopam-treated TCC organoids
canine UC organoids = assay: MTT assay for metabolic activity of urine-derived UC organoids; assay type: cell-based; settings: incubation for 24-48 hours
Experimental: Free-catch urine was collected from one dog at time of UC diagnosis. Samples were centrifuged and supernatant was removed. The resulting pellet was washed with phosphate-buffered saline (PBS), then incubated in complete chelating solution (CCS) with EDTA and plated in […]® for establishment of organoid culture within one week. Sub-samples of differentiated UC organoids were taken for 3-(4,5-dimethylthiazol-2-yl)-2,5-diphenyltetrazolium bromide (MTT) assay for metabolic activity assessment after incubation with chemotherapeutic agents. Remaining UC organoids were characterized with H&E, RNA in-situ hybridization (RNA-ISH), and immunohistochemistry (IHC) staining techniques.

P-gp = target: T1, P-gp (Canis lupus familiaris, UniProt C0KKU9); assay: Rhodamine 123 (Rh123) transport in canine ileal enteroids; assay type: cell-based; settings: Rh123 1-50 μM, 30 min incubation, without verapamil
T1 construct: Therefore, P-gp of the enteroids have maintained their transportation ability; endogenous in cells; host or cells: canine ileal enteroids (3D organoids from adult intestinal stem cells of dogs)
T1 sequence (C0KKU9 1-1281): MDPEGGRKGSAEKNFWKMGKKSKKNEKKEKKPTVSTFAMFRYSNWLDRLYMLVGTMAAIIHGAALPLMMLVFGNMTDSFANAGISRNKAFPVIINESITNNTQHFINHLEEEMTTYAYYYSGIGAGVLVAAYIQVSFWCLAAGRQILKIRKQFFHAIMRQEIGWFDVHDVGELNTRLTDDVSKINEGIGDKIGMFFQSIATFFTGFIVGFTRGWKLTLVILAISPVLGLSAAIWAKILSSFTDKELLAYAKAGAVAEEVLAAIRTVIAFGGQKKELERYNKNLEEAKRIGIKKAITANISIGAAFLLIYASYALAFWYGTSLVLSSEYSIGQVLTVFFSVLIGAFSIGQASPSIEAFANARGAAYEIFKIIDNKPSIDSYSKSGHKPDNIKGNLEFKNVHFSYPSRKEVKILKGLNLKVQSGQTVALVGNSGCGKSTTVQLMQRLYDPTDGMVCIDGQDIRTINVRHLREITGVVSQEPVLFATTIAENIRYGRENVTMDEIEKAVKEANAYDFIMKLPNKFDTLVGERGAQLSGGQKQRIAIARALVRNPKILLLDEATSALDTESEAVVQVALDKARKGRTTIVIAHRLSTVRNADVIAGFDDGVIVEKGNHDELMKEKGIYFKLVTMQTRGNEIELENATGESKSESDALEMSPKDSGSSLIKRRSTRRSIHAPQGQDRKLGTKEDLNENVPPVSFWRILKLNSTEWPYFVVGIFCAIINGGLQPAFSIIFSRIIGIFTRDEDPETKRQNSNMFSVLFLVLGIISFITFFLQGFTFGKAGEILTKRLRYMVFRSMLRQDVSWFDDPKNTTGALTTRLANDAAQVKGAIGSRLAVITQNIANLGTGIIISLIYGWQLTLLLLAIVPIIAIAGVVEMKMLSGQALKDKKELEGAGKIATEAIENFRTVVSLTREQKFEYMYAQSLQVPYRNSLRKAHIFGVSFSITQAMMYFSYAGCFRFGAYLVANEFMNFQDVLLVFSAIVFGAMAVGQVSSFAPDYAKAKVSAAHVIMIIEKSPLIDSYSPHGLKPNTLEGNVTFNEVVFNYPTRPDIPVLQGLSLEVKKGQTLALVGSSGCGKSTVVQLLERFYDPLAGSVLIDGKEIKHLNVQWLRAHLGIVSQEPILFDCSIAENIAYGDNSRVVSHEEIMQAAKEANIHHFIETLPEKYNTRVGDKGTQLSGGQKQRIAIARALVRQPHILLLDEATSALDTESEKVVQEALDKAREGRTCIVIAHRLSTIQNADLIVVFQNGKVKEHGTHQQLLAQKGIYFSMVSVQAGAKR
Experimental: Canine ileal enteroids were passaged into 15 μL per well of […] ® in chambered cover glass system (Lab-Tek, Chambered Coverglass 8 well) and cultured with 300 μL per well of CMGF+ media for 2 days. […] Rh123 transport experiments were divided into: (1) Control [CTR] […] Enteroids were treated for 30 min and then washed with room-temperature PBS.
Confocal microscopy (SP5 X MP LAS X; Leica) at the Iowa State University Roy J. Carver High Resolution Microscopy Facility was used to acquire images to detect green fluorescence within the luminal aspect of the enteroids. Fluorescence intensity was controlled by the luminal area to control for the size variation of the enteroids and quantified using the ImageJ software.
Student's t-tests were used to compare study groups (CTR vs. TRT) for the various doses of Rh123. The Benjamini-Hochberg Procedure was performed to control the risk of false positive for multiple comparisons. All statistical analyses were perform using GraphPad Prism 8.2.1 (San Diego, Calif.) and R 3.5.1. P<0.05 were considered as statistically significant.

CC[C@]1(O)C[C@@H]2CN(CCc3c([nH]c4ccccc34)[C@@](C(=O)OC)(c3cc4c(cc3OC)N(C)[C@H]3[C@@](O)(C(=O)OC)[C@H](OC(C)=O)[C@]5(CC)C=CCN6CC[C@]43[C@@H]65)C2)C1 [Vinblastine]
effect on TCC cell viability (MTT assay) (TCC organoids [1]; other plate, dose not given): slight stimulatory effect

Oc1ccc(C2CNCCc3c2cc(O)c(O)c3Cl)cc1 (centres unmarked) [Fenoldopam]
decrease of TCC organoid Ki-67 (proliferation) (TCC organoids [2]; 1 nM Fenoldopam): about 50%
effect on TCC organoid Ki-67 (proliferation) (TCC organoids [2]; 10 μM Fenoldopam): did not have much effect
lumens/holes in the TCC organoids (TCC organoids [3]): getting bigger

N.N.[Cl][Pt][Cl] [cisplatin]
metabolic activity of UC organoids (MTT) (canine UC organoids): reduced metabolic activity

NS(=O)(=O)NCCNc1nonc1C(=NO)Nc1ccc(F)c(Br)c1 [Epacadostat]
TCC cell viability (MTT assay) (TCC organoids [1]; 1 μM Epacadostat, 48 hours): about 80 % of control
decrease of TCC cell viability (MTT assay) (TCC organoids [1]; other doses of Epacadostat, 48 hours): not at the other doses

CN1C(C(=O)Nc2ccccn2)=C(O)c2ccccc2S1(=O)=O [Piroxicam]
decrease of Ki-67 staining (TCC organoids [2]; 0.1 μM Piroxicam): 50%
increase of Ki-67 IHC staining (TCC organoids [2]; 1-10 μM Piroxicam): 2-3 fold
cell viability (MTT) (TCC organoids [1]; 1-10 μM, 48 hours or 4 days, organoid type not restated): ≥ 80 % of control

C[C@H](NC(=O)c1c(C(F)F)nn(C)c1Oc1cccc(C(F)(F)F)c1)c1ccc(C(=O)O)cc1 [E-7046]
effect on TCC cell viability (MTT assay) (TCC organoids [1]; other plate, dose not given): slight stimulatory effect

COc1cccc2c1C(=O)c1c(O)c3c(c(O)c1C2=O)C[C@@](O)(C(=O)CO)C[C@@H]3O[C@H]1C[C@H](N)[C@H](O)[C@H](C)O1 [Doxorubicin]
Ki-67 IHC (proliferation) (TCC organoids [2]; 0.1 μM Dox, once): 10-20 % of control
TCC organoid cell viability (MTT) (TCC organoids [1]; 10 μM doxorubicin): 50 % of control
effect on TCC organoid cell viability (MTT), other runs (TCC organoids [1]; sometimes observed): small 20% effect or no effect

NCCc1ccc(O)c(O)c1 [Dopamine]
increase of Ki-67 IHC staining (TCC organoids [2]; 0.1, 1, 10 μM): about 2 fold

Rhodamine 123 [Rh123]
Rh123 luminal transportation (P-gp): significant dose response

COc1cc(OC)cc(N(CCNC(C)C)c2ccc3ncc(-c4cnn(C)c4)nc3c2)c1 [Erdafitinib]
effect on TCC cell viability (MTT assay) (TCC organoids [1]; 1-10 μM): no effect
